The series relates to 2F–2B ECs. The format is cell-based, murine. As for the experimental part: The murine 2F–2B endothelial cell line (ATCC) was transiently transfected as described elsewhere (Soares et al., Nature Med. 4:1073, 1998; Brouard et al, J. Exp. Med. 192:1015, 2000). All experiments were conducted 24–48 h after transfection. é-galactosidase-transfected cells were detected as described elsewhere (Soares et al., Nature Med. 4:1073, 1998; Brouard et al., J. Exp. Med. 192:1015, 2000). Percentage of viable cells was assessed by evaluating the number of é-galactosidase-expressing cells that retained normal morphology as described elsewhere (Soares et al., Nature Med. 4:1073, 1998; Brouard et al., J. Exp. Med. 192:1015, 2000). The number of random fields counted was determined to have a minimum of 200 viable transfected cells per control well. The percentage of viable cells was normalized for each DNA preparation to the number of transfected cells counted in the absence of the apoptosis-inducing agent (100% viability). All experiments were performed at least three times in duplicate. Actinomycin D (Act. D; Sigma) was dissolved in PBS and added to the culture medium (10 îg/ml) 24 h after transfection. SnPPIX (Porphyrin Products) was dissolved (10 îM) in 100 mM NaOH and conserved at −20° C. until used. SNPPIX was added to the culture medium (50 îM) 6 h after transfection. Human recombinant TNF-α (R&D Systems, Minneapolis, Minn.) was dissolved in PBS, 1% BSA, and added to the culture medium (10–100 ng/ml) 24 h after transfection.
Cells were exposed to compressed air or varying concentration of CO (250 and 10,000 ppm), as described elsewhere (Otterbein et al., Nature Med. 6:422, 2000; and Brouard et al., J. Exp. Med. 192:1015, 2000).
BAECs and 2F–2B ECs were transiently transfected. All experiments were carried out 24–48 h after transfection. The percentage of viable cells was assessed by evaluating the number of β-galactosidase-expressing cells that retained normal morphology. The number of random fields counted was determined to have a minimum of 200 viable transfected cells per control well. The percentage of viable cells was normalized for each DNA preparation to the number of transfected cells counted in the absence of the apoptosis-inducing agent (100% viability). All experiments were performed at least three times in duplicate.
Actinomycin D (Act.D; Sigma-Aldrich) was dissolved in PBS and added to the culture medium 24 h after transfection. The Act.D concentration used corresponded to the optimal concentration necessary to sensitize ECs to TNF-α mediated apoptosis, e.g., 10 μg/ml for 2F–2B ECs and 0.1 μg/ml for BAECs. When indicated, EC apoptosis was induced by etoposide (200 μM, 8 h; Calbiochem-Novabiochem) or by serum deprivation (0.1% FCS for 24 h). The iron chelator deferoxamine mesylate (DFO; Sigma-Aldrich) was dissolved in water and added to culture medium (1–100 μM) 1 h before the induction of apoptosis. Hemoglobin (Hb; Sigma-Aldrich) was dissolved (1 mM) in PBS, 10 mM Na2S2O4, dialyzed against PBS (2 h, 4° C., 1:800 dilution), and added to the culture medium (1–100 μM) 6 h after transfection. The guanylcyclase inhibitor 1H(1,2,4)oxadiazolo(4,3)quinoxalin-1 (ODQ; Calbiochem-Novabiochem) was dissolved in DMSO (Sigma-Aldrich) and added to the culture medium (10–100 μM) 6 h after transfection. Iron protoporphyrin ([FePP]/heme), cobalt protoporphyrin (CoPPIX), and tin protoporphyrin (SnPPIX; all from Porphyrin Products, Inc.) were dissolved (10 mM) in 100 mM NaOH and held at −20° C. until use. Metalloporphyrins were added to the culture medium (50 μM) 6 h after transfection. The cGMP analogue 8-bromo-cGMP sodium salt (8-Br-cGMP; Sigma-Aldrich) was dissolved in water and added to the culture medium (10–100 µM) 30 min before the induction of apoptosis. Human recombinant TNF- (R&D Systems) was dissolved in PBS and 1% BSA, and added to the culture medium (10–100 ng/ml) 24 h after transfection.
Cells were exposed to compressed air from a compressed air tank or varying concentrations of CO (250 and 10,000 ppm).

Entries after “also recorded” stand apart in the source; their conditions may differ.

On to `[C-]#[O+]` [CO, carbon monoxide], for which the “effect on EC apoptosis under inhibition of HO activity by SnPPIX” value (CO 250 ppm) is recorded as “did not suppress EC apoptosis significantly”. Also, the “effect on TNF-α mediated apoptosis of control ECs (pcDNA3)” value (exogenous CO 10,000 ppm) is on record as “TNF-α mediated apoptosis was suppressed”.
In the case of `O=c1onc2cnc3ccccc3n12` [ODQ, 1H[1,2,4]oxadiazolo[4,3-α]quinoxalin-1], the “effect on the antiapoptotic effects of HO-1” value (ODQ 10–100 μM) is on record as “did not suppress the antiapoptotic effects of HO-1”.
Take `C=CC1=C(C)c2cc3[n-]c(cc4[n-]c(cc5nc(cc1n2)C(C)=C5C=C)c(C)c4CCC(=O)O)c(CCC(=O)O)c3C.[Fe+2]` [FePPIX, iron protoporphyrin]: under “2F–2B ECs”, the “concentrations at which heme becomes cytotoxic” value is recorded as “higher than 10 μM” and the “heme concentrations at which the protective effect from TNF-α plus Act.D-mediated apoptosis was observed” value was in the range of 5 to 7 µM. Moreover, the “effect on EC apoptosis when CO was scavenged by Hb” value (FePP 6.25 μM, Hb 50 μM) is on record as “no longer able to suppress EC apoptosis”.
For `Nc1nc2c(nc(Br)n2[C@@H]2O[C@@H]3COP(=O)(O)O[C@H]3[C@H]2O)c(=O)[nH]1` [8-Br-cGMP, 8-bromoguanosine-3′-5′-cyclic-monophosphate], the “effect on EC apoptosis” value (8-Br-cGMP) is listed as “failed to suppress EC apoptosis”.
On to `C=Cc1c2[n-]c(c1C)/C=c1\[n-]/c(c(C)c1C=C)=C\c1[n-]c(c(CCC(=O)O)c1C)C=c1[n-]/c(c(C)c1CCC(=O)O)=C\2.[Sn+4]` [SnPPIX, tin protoporphyrin IX], for which, where the note is “HO-1 transfected ECs, protoporphyrin 50 μM”, the “effect of protoporphyrin on the antiapoptotic effect of HO-1” value is “blocked the antiapoptotic effect of HO-1; also recorded: HO-1 was no longer able to prevent EC apoptosis”.

The values above are taken from patent US7238469B2, “Carbon monoxide improves outcomes in tissue and organ transplants and suppresses apoptosis” (priority 2001, dated 2007).
